# Measurements reported in patent publication US6949566B2, “Thiazole and oxazole derivatives” (Shionogi & Co. Ltd., priority 2000, dated 2005).
# Assays:
# MMP-13 = biological target: T1, MMP-13 (Homo sapiens, UniProt P45452); test: Assay for inhibitory activities on MMPs (fluorogenic peptide substrate), MMP-13; format: biochemical; conditions: catalytic domain 104Tyr-267Gly; substrate MOCAc-Pro-Leu-Gly-Leu-A2Pr(DNP)-Ala-Arg-NH2
# T1 construct: catalytic domain (^104Tyr˜^267Gly) was amplified with RT-PCR; His-tag; enterokinase digestion-site; made in house; host or cells: Escherichia coli
# Description: (§1) In regard to MMP-13, mRNA was prepared from carcinoma cell SW1353 derived from human cartilage stimulate by IL-1, TNF and catalytic domain (^104Tyr˜^267Gly) was amplified with RT-PCR. This was cloned in Escherichia. coli expression vector pTrc99AHE inserted with His-tag sequence and enterokinase digestion-site, induced and expressed by IPTG (Isopropyl-β-D-thiogalactopyranoside) and expressed in a insoluble fraction. Isolation of MMP-13 from an insoluble fraction was carried out by dissolving in modifier (6M urea) by a usual method and purification with metal chelate chromatography (Ni Chelateing Sepharose). And then removing modifier (6M urea) with dialyze and refolding of the enzyme spontaneously gave activated MMP-13.
# (§2) The enzymatic activity on MMPs was analyzed by the method described in “C. Graham Knight, Frances Willenbrock and Gillian Murphy: A novel coumarin-labelled peptide for sensitive continuous assays of the matrix metalloproteinases: FEBS LETT., 296, (1992), 263-266”. The substrate MOCAc-Pro-Leu-Gly-Leu-A2Pr(DNP)-Ala-Arg-NH2 was purchased from Peptide Institute, Inc., Osaka, Japan. The measurement of the inhibitory activities (IC50) was carried out by the following four methods;
# (§3) (A) Reaction with substrate, enzyme (MMPs) and inhibitor
# (§4) (B) Reaction with substrate and inhibitor, without enzyme
# (§5) (C) Reaction with substrate and enzyme (MMPs), without inhibitor
# (§6) (D) Reaction with substrate only
# (§7) IC50 values were calculated by using the following formula and each fluorescence values of above four methods (A to D). % inhibition={1−(A−B)/(C−D)}×100 IC50 means the concentration required to inhibit 50% of the enzyme activity.
# MMP-2 = biological target: T2, MMP-2 (Homo sapiens, UniProt P08253); test: Assay for inhibitory activities on MMPs (fluorogenic peptide substrate), MMP-2; format: biochemical; conditions: purchased MMP-2; substrate MOCAc-Pro-Leu-Gly-Leu-A2Pr(DNP)-Ala-Arg-NH2
# T2 construct: purchased Calbiochem-Novabiochem International, Inc
# T2 sequence (P08253 110-660): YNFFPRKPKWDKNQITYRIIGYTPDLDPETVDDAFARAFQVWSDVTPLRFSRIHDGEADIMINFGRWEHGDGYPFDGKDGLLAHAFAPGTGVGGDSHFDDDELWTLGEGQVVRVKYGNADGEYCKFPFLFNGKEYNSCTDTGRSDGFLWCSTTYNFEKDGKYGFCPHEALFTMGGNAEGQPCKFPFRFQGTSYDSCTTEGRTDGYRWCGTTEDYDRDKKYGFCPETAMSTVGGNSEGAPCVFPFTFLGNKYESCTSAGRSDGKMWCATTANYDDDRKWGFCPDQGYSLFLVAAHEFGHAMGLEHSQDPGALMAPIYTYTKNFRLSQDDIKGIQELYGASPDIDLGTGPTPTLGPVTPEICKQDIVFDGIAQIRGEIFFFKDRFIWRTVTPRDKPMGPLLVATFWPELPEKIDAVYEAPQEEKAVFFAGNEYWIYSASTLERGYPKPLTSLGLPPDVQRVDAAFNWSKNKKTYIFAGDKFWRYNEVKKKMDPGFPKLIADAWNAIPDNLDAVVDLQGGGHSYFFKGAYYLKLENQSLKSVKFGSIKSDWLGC
# Description: MMP-2 was purchased from Calbiochem-Novabiochem International, Inc.
# as §2, §3, §4, §5, §6, §7
# MMP-9 = biological target: T3, MMP-9 (Homo sapiens, UniProt P14780); test: Assay for inhibitory activities on MMPs (fluorogenic peptide substrate), MMP-9; format: biochemical; conditions: MMP-9 from HT1080 cells, activated by TPCK-Trypsin; substrate MOCAc-Pro-Leu-Gly-Leu-A2Pr(DNP)-Ala-Arg-NH2
# T3 construct: endogenous in cells; host or cells: HT1080 human fibrosarcoma cells, TPA-stimulated; enzyme purified from conditioned medium
# From the text: MMP-9 was isolated and purified by procedures described in as follows: Yasunori Okada, Yukio Gonoji, Katsumi Naka, Katsuro Tomita, Isao Nakanishi, Kazushi Iwata, Kyoko Yamashita, and Taro Hayakawa: Matrix metalloproteinase 9 (92-kDa gelatinase/type IV collagenase) from HT1080 human fibrosarcoma cells. Purification and activation of the precursor and enzymic properties J. Biol. Chem., 1992, 267 21712-21719, in combination with others: 1)Yasunori Okada, Tatsuhisa Morodomi, Jan J, Enghild, ko Suzuki, Atsushi Yasui, Isao Nakanishi, Guy Salvesen and Hideaki Nagase: Matrix metalloproteinase 2 from human rheumatoid synovial fibroblasts. Purification and activation of the precursor and enzymic properties. Eur. J. Biochem. 1990, 194 721-730; 2)Robin V Ward, Rosalind M Hembry, John J Reynolds and Gillian Murphy: The purification of tissue inhibitor of metalloproteinase-2 from its 72 kDa progelatinase complex. Biochem. J. 1991 278 179-187. In detail, human fibrosarcoma ATCC HT1080 cell line was cultured to confluent in Dulbecco's Modified Medium (DMEM) containing 10% fetal-calf serum at 37° C. for 48 hours. Subsequently, the medium of confluent culture was changed to serum-free DMEM medium. To obtain MMP-9, Phorbol-12-myristate-13-acetate (TPA) must be added to this serum-free DMEM medium at a concentration of 50 ng/ml. The TPA treated medium was centrifuged at 3000 rpm for 15 min and the supernatant was concentrated to 450 ml by a Toyo-Roshi UP-20 apparatus with an ultrafiltration membrane. Then, proMMP-9 in this concentrated solution was purified by using columns of Gelatin-Sepharose and Concanavalin A-Sepharose. The pool containing proMMP-9 was dialyzed, concentrated (Toyo-Roshi UP-20) and applied to columns of Sephacryl S-200 and Green A matrix for the separation from TIMPs. The obtained proMMP-9 fraction was activated by TPCK-Trypsin (Final conc. 3 μg/501 μl React Mix.).
# as §2, §3, §4, §5, §6, §7
# MMP-12 = biological target: T4, MMP-12 (Homo sapiens, UniProt P39900); test: Assay for inhibitory activities on MMPs (fluorogenic peptide substrate), MMP-12; format: biochemical; conditions: catalytic domain 100Phe-263Gly; substrate MOCAc-Pro-Leu-Gly-Leu-A2Pr(DNP)-Ala-Arg-NH2
# T4 construct: catalytic domain(^100Phe˜^263Gly) was amplified with RT-PCR; His-tag; enterokinase digestion-site; made in house; host or cells: Escherichia coli
# Description: as §1, with “MMP-12,” for “MMP-13, mRNA was prepared from carcinoma cell SW1353 derived from human cartilage stimulate by IL-1, TNF and”, “domain(^100Phe˜^263Gly)” for “domain (^104Tyr˜^267Gly)”, “RT-PCR from Human Placenta Total RNA.” for “RT-PCR.”, “MMP-12” for “MMP-13”, “dialysis” for “dialyze”, “MMP-12.” for “MMP-13.”
# as §2, §3, §4, §5, §6, §7
# MMP-8 = biological target: T5, MMP-8 (Homo sapiens, UniProt P22894); test: Assay for inhibitory activities on MMPs (fluorogenic peptide substrate), MMP-8; format: biochemical; conditions: catalytic domain 99Phe-262Gly; substrate MOCAc-Pro-Leu-Gly-Leu-A2Pr(DNP)-Ala-Arg-NH2
# T5 construct: catalytic domain (^99Phe˜^262Gly) was amplified with PCR; His-tag; enterokinase digestion-site; made in house; host or cells: Escherichia coli
# From the text: In regard to MMP-8, catalytic domain (^99Phe˜^262Gly) was amplified with PCR using commercial available Human Bone Marrow cDNA. This was cloned in Escherichia. coli expression vector pTrc99AHE inserted with His-tag sequence and enterokinase digestion-site, induced and expressed by IPTG (Isopropyl-β-D-thiogalactopyranoside) and expressed in a insoluble fraction (Thau F. Ho, M. Walid Qoronfleh, Robert C. Wahl, Trica A. Pulvino, Karen J. Vavra, Joe Falvo, Tracey M. Banks, Patricia G. Brake and Richard B. Ciccarelli: Gene expression, purification and characterization of recombinant human neutrophil collagenase. Gene 146, (1994) 297-301, Prepared by the a improved method of this material). Isolation of MMP-8 from an insoluble fraction was carried out by dissolving in modifier (6M urea) by a usual method and purification with metal chelate chromatography. And then removing modifier (6M urea) with dialysis and refolding of the enzyme spontaneously gave activated MMP-8.
# as §2, §3, §4, §5, §6, §7
# T5 sequence (P22894 99-262): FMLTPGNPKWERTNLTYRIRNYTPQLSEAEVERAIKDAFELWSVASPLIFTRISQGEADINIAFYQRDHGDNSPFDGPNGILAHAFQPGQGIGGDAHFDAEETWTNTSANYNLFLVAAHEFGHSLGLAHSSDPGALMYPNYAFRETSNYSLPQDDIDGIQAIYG
# T4 sequence (P39900 100-263): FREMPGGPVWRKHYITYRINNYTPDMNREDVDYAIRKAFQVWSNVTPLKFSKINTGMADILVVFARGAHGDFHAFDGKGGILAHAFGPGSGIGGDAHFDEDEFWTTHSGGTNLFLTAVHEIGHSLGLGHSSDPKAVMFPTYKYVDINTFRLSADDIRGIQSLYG
# T3 sequence (P14780 107-707 limits assumed): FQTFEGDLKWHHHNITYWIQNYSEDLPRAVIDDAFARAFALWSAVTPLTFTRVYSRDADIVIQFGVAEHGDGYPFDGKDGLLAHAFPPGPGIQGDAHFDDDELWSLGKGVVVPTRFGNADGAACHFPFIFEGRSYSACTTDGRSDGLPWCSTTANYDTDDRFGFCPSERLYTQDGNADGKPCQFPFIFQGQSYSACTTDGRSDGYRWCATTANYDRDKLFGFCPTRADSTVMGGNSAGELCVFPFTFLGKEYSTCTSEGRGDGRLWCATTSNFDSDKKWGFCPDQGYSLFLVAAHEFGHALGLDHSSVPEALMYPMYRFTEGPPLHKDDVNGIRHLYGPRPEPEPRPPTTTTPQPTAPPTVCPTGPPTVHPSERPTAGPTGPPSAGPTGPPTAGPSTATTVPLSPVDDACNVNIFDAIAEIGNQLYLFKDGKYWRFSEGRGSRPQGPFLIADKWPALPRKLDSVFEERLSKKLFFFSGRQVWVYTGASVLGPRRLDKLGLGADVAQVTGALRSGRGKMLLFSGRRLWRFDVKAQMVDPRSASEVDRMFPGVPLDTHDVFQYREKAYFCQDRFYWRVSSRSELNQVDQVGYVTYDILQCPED
IC50 (MMP-13),IC50 (MMP-2),melting point,IC50 (MMP-9),IC50 (MMP-12),IC50 (MMP-8),SMILES
15 nM,9.31 nM,243 to 245 °C,212 nM,1.88 nM,230 nM,O=C(O)[C@@H](Cc1ccccc1)NS(=O)(=O)c1ccc(-c2ncc(-c3ccc4ccccc4c3)o2)cc1 [Compound A-1]
2.96 nM,1.29 nM,222 to 223 °C,43.8 nM,3.55 nM,28.2 nM,COc1ccc(-c2cnc(-c3ccc(S(=O)(=O)N[C@H](Cc4ccccc4)C(=O)O)cc3)s2)cc1 [Compound B-1]
6.82 nM,1.63 nM,–,53.6 nM,3.35 nM,24.9 nM,COc1ccc(-c2cnc(-c3ccc(S(=O)(=O)N[C@H](CC(C)C)C(=O)O)cc3)s2)cc1 [Compound B-34]
7.43 nM,2.14 nM,–,11.6 nM,2.54 nM,104 nM,O=C(O)C[C@@H](NS(=O)(=O)c1ccc(-c2ncc(-c3ccc(Cl)cc3)s2)cc1)C(=O)O [Compound B-38]
17.5 nM,2.15 nM,–,26.3 nM,2.66 nM,29 nM,CSCC[C@@H](NS(=O)(=O)c1ccc(-c2ncc(-c3ccccc3)s2)cc1)C(=O)O [Compound B-45]
11 nM,1.17 nM,–,24 nM,1.08 nM,57 nM,CSCC[C@@H](NS(=O)(=O)c1ccc(-c2ncc(-c3ccc(Cl)cc3)s2)cc1)C(=O)O [Compound B-46]
2.66 nM,0.276 nM,–,4.24 nM,0.761 nM,66 nM,O=C(O)[C@@H](Cc1c[nH]c2ccccc12)NS(=O)(=O)c1ccc(-c2ncc(-c3ccc(Cl)cc3)s2)cc1 [Compound B-51]
29.5 nM,2.5 nM,–,34.7 nM,5.55 nM,453 nM,O=C(O)CNS(=O)(=O)c1ccc(-c2ncc(-c3ccc(Cl)cc3)s2)cc1 [Compound B-52]
12.4 nM,2.41 nM,–,173 nM,2.54 nM,373 nM,C[C@@H](NS(=O)(=O)c1ccc(-c2ncc(-c3ccc4ccccc4c3)s2)cc1)C(=O)O [Compound B-53]
